Results taken from US5461057A, “Hydro-ethano-indeno-pyridines” (priority 1994, dated 1995).
pIC50: −log10 of the molar value. Where two headings read alike, the source gives them in different places.

What was measured:
[1] = test system: LOX human melanoma cell adhesion to human fibronectin; assay: LOX melanoma cell adhesion to fibronectin; format: cell-based; conditions: Homo sapiens, LOX; for inhibition at 10 µM: read-out: % Inhibition at 10 μM; for inhibition at 50 µM: read-out: % Inhibition at 50 μM
Procedure, shortened: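 Compound added to fibronectin-coated (140 ng/well), BSA-blocked wells before LOX cells (1×10^5/well, detached with urea/EDTA). Cells adhered 1 h at 37 °C, then washed. Adherent cells quantified by calcein AM fluorescence (485/530 nm); IC50 for adhesion inhibition.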

[2] = test system: LOX human melanoma cell adhesion to polylysine; assay: LOX melanoma cell adhesion to polylysine; format: cell-based; conditions: read-out: Poly Lys IC50
[3] = test system: M27 murine lung carcinoma cell adhesion to fibronectin; assay: M27 lung carcinoma cell adhesion to fibronectin; format: cell-based; conditions: Mus musculus; read-out: M27 FN IC50
Procedure: (§1) Adhesion assays were run essentially as described previously (Pai et al., J. Biomed. Res. 2: 53, 1992). 96-well plates were coated with human fibronectin (140 ng/well), human vitronectin (75 ng/well), human collagen I (100 ng/well), human collagen IV (100 ng/well), human fibrinogen (1 μg/well), murine laminin (600 ng/well), or polylysine, and incubated overnight in a humidified 37° C. incubator. Excess fibronectin or other substrate was then removed and 0.2 ml of 2 mg/ml bovine serum albumin (BSA)in Dulbecco's phosphate-buffered saline (DPBS) was added to each well, incubated for 2 hours at 37° C., and removed. LOX human melanoma cells, M27 murine lung carcinoma cells or B16F10 mouse melanoma cells were detached from tissue culture flasks with RPMI medium containing 0.2M urea and 10 mM EDTA, and 0.18 ml of cells were added to each well to a final cell concentration of 1×10^5 cells/well. For inhibition studies 20 μl of 10× compound was added to the wells prior to cell addition. Cells were allowed to adhere for 1 hour at 37° C. The wells were then gently washed twice with 0.2 ml DPBS. The fluorescent dye calcein AM (Molecular Probes, Eugene Oreg.) in DPBS (0.1 ml of 1 μM) was added to each well, and the plates were incubated for 1 hour at room temperature. Adherent cells were quantitated by reading the fluorescence on a Cytofluor 2300 fluorescent plate reader (Millipore) at 485 nm excitation and 530 nm emission.

[4] = test system: B16-F10 mouse melanoma cell adhesion to fibronectin; assay: B16-F10 melanoma cell adhesion to fibronectin; format: cell-based; conditions: read-out: B16 FN IC50
Procedure: as §1

ICAM-1 = target: T1, ICAM-1 (Homo sapiens, UniProt P05362); assay: HL-60 cell adhesion to recombinant soluble ICAM-1; format: cell-based; conditions: HL-60 cells
T1 construct: recombinant soluble ICAM-1 (2 μg/well)
Procedure: For measurement of cell adhesion to ICAM-1, HL-60 human leukemia cells were induced to differentiate in the presence of DMSO for 6 days. Adhesion of DMSO-differentiated HL-60 cells to recombinant soluble ICAM-1 (2 μg/well) was measured as described above for LOX cell adhesion, except that the adhesion was allowed to proceed for 30 minutes, rather than 1 hour, at 37° C.
ICAM-1 is a cell surface adhesion molecule that participates in cell-cell adhesion interactions, rather than cell-matrix adhesion interactions.

ELAM-1 = ELAM-1 (Homo sapiens, UniProt P16581); assay: cell-based
Procedure: Cell adhesion to ELAM-1 was measured essentially as described previously (Pal et al., J. Biomed. Res. 2: 53, 1992). Undifferentiated HL-60 leukemia cells were prelabelled for 30 minutes with 1 μM calcein AM in DPBS without calcium or magnesium, and the cells were washed twice with the same medium before addition to 96-well plates containing monolayers of mouse L cells (5×10^4 cells/well) transfected with cDNA for the adhesion molecule ELAM-1. Adhesion was allowed to proceed for 30 minutes at room temperature before washing and quantitation of the remaining fluorescent HL-60 cells as described above.
ELAM-1 (E-selectin) is a member of the selectin class of adhesion molecules.

[5] = test system: LOX human melanoma cell adhesion to human fibrinogen; assay: LOX cell adhesion to fibrinogen; format: cell-based; conditions: read-out: Fibrinogen IC50
Procedure: as §1

pulmonary resistance = assay: Pulmonary Resistance in the Anesthetized Rat; format: in vivo; conditions: 0.5 mpk, i.v.; mean of 5 animals; % decrease in pre-drug baseline resistance
Procedure, shortened: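 Dialurethane-anesthetized rats (400-500 g) with tracheal and esophageal catheters; air flow and tracheal/esophageal pressures used to derive pulmonary resistance. Compounds given i.v. to 5 animals each; values are mean % decrease from pre-drug baseline resistance.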

[6] = test system: B16-F10 murine melanoma metastasis; assay: In vivo experimental metastasis; design: species or system mouse (C57/black6); conditions: 150 mpk i.p.
Procedure: C57/black6 female mice (6-7 weeks old) were randomized before any treatment into groups of 5 mice per treatment. Compounds of the invention were prepared as a fine suspension in 25% β-cyclodextran and administered i.p. in a volume of 0.2 ml per animal. Two hours after drug (or vehicle) injection, 0.2 ml of DPBS containing 1×10^5 B-16 F10 murine melanoma cells were injected i.v. into the tail vein. After 14 days, animals were sacrificed and lungs were removed. Metastatic lung colonies were counted by visual inspection.
*Pretreatment Time is the time between i.p. drug injection and i.v. tumor

TBZ-induced ptosis = assay: Effects on tetrabenazine (TBZ)-induced ptosis in mice; format: in vivo, mouse; conditions: Mus musculus, po
Procedure, shortened: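 Mice dosed p.o. with test compound and challenged with tetrabenazine; blockade of TBZ-induced ptosis scored per the cited Nodine and Moyer procedure. Values are ED50 in mg/kg.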

T1 sequence (P05362 28-480 limits assumed): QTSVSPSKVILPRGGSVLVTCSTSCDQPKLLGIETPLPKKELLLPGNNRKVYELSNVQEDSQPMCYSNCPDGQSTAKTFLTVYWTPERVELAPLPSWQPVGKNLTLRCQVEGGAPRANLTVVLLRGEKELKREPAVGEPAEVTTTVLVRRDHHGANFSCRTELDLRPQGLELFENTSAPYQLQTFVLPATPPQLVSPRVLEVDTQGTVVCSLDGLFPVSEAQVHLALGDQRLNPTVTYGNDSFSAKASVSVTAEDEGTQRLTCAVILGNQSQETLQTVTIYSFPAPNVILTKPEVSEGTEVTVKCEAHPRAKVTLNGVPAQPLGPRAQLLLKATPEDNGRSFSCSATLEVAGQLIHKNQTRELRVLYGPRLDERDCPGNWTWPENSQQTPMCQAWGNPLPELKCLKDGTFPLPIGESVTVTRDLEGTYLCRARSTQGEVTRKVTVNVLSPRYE
Sequence of ELAM-1 (P16581 22-610): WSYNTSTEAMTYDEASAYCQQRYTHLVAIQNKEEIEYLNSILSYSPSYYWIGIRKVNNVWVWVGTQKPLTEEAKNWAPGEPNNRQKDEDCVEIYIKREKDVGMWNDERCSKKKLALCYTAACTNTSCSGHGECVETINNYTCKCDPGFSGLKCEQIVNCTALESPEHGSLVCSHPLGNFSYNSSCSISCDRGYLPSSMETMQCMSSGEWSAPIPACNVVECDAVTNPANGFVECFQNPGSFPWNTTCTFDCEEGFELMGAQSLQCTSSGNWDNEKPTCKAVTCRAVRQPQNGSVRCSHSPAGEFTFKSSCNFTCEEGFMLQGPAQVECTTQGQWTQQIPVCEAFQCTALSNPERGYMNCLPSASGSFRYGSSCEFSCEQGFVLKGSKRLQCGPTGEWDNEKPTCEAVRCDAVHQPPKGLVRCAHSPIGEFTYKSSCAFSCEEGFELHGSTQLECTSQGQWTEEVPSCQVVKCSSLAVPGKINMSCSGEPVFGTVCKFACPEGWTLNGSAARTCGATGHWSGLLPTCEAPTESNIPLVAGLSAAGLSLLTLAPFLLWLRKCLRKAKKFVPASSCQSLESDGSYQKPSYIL

SMILES | pIC50 ([1]; 1 h, read-out: LOX FN IC50) | inhibition at 10 µM [1] | inhibition at 50 µM [1] | pIC50 ([1]; read-out: Fibronectin IC50) | pIC50 [2] | pIC50 [3] | pIC50 [4] | pIC50 (ICAM-1) | pIC50 (ELAM-1) | pIC50 [5] | Pulmonary Resistance in Rats, % Inhibition (pulmonary resistance) | inhibition of in vivo metastasis relative to vehicle control ([6]; 2 hours before i.v. injection of melanoma) | % Inhibition of lung metastasis ([6]; pretreatment time 30 min) | Number of Lung Melanoma Colonies ([6]; pretreatment time 30 min) | % Inhibition of lung metastasis ([6]; pretreatment time 120 min) | Number of Lung Melanoma Colonies ([6]; pretreatment time 120 min) | ED50 (TBZ-induced ptosis)
Cc1ccc(C2=C3CC4CCC(C3c3ccccc32)N4C)cc1 (stereo not shown) [J] | 5.28 | 31.1% | 101% | 5.28 | 4.27 | 4.75 | 4.80 | < 4.30 | < 4.30 | 4.87 | 35% | – | – | – | – | – | –
CN1C2CCC1C1C(=C(c3ccc(Cl)cc3)c3ccccc31)C2 (stereo not shown) [C] | 5.14 | 58.6% | 101% | 5.14 | 3.61 | 4.86 | 4.82 | 4.61 | < 4.30 | 5.21 | – | – | – | – | – | – | –
COc1ccc(C2=C3CC4CCC(N4)C3c3ccccc32)cc1 (stereo not shown) [Compound B] | 5.29 | 61.8% | 101% | 5.29 | 4.65 | 4.77 | 4.83 | < 4.30 | < 4.30 | 5.00 | – | 73% | 55.7% | 35.2 ± 13.9 | 72.5% | 21.8 ± 2.0 | 12 mg/kg
